# Results as given in ChEMBL document CHEMBL1201862, “PubChem BioAssay data set” (2004).
# Activity calls are given as the source filed them.
# Tests used:
# Kallikrein-7 = Kallikrein-7 (Homo sapiens, UniProt P49862); experiment: Fluorescence Intensity-based biochemical primary high throughput dose response assay to identify activators of kallikrein-7 (K7) zymogen.
# [1] = cervical cancer cell viability loss – HeLa, 24 h, plate reader, powder samples, set 3, cytotoxicity control, dose response (AID 651864); type: functional, cell-based
# [2] = melanocyte viability loss, MITF-dependent cells, cell-based, plate reader, dry powder, cytotoxicity control, dose response (AID 651920); type: functional
# [3] = inhibitors of TRPM1-promoter reporter in SK-MEL-5 – cell-based, luciferase, dry powder, set 8, MITF inhibitor project, dose response (AID 624430); type: functional
# [4] = cytotoxicity in MITF-independent A375 cells – cell-based, CellTiter-Glo luminescence, dry powder, set 9, counter-screen for MITF modulator project, dose response (AID 651591); type: functional; conditions: A-375
# [5] = MITF: Counter assay: A375 proliferation Measured in Cell-Based System Using Plate Reader - 2084-03_Inhibitor_Dose_DryPowder_Activity_Set8.; type: functional; conditions: A-375
# [6] = inhibitors of TRPM1-promoter reporter in SK-MEL-5 – cell-based, luciferase, dry powder, set 9, MITF inhibitor project, dose response (AID 651588); type: functional
# [7] = MITF Orthogonal Assay: MALME3 CTG Assay Measured in Cell-Based System Using Plate Reader - 2084-04_Inhibitor_Dose_DryPowder_Activity_Set6.; type: functional; conditions: MALME-3
# [8] = growth inhibition of SK-MEL-5 melanoma cells – cell-based, CellTiter-Glo luminescence, dry powder, set 8, orthogonal assay for MITF inhibitor project, dose response (AID 651586); type: functional
# [9] = MITF Orthogonal Assay: SK-MEL-5 CTG Assay Measured in Cell-Based System Using Plate Reader - 2084-02_Inhibitor_Dose_DryPowder_Activity_Set7.; type: functional
# [10] = growth inhibition of MALME3 cells – cell-based, CellTiter-Glo luminescence, dry powder, set 5, orthogonal assay for MITF inhibitor project, dose response (AID 651584); type: functional; conditions: MALME-3
# [11] = target: Luciferin 4-monooxygenase (Photinus pyralis, UniProt P08659); experiment: inhibition of purified Photinus pyralis luciferase – biochemical, luminescence, dose response (AID 1891)
# [12] = target: 1-phosphatidylinositol 4,5-bisphosphate phosphodiesterase gamma-1 (Homo sapiens, UniProt P19174); experiment: Counterscreen for inhibitors of phospholipase C isozymes (PLC-B3): Fluorescence-based biochemical high throughput dose response assay to identify inhibitors of phospholipase C isozymes (PLC-gamma1).
# [13] = Luminescence Cell-Based Dose Confirmation HTS to Identify Inhibitors of Platelet Dense Granule Release. [Related pubchem assays: 1663 (Primary HTS), 1678 (Summary of Project)]; type: functional
# [14] = target: 1-phosphatidylinositol 4,5-bisphosphate phosphodiesterase beta-3 (Homo sapiens, UniProt Q01970); experiment: Fluorescence-based biochemical high throughput dose response assay to identify inhibitors of phospholipase C isozymes (PLC-B3).
# [15] = inhibitors of non-replicating M. tuberculosis, dose response, luciferase, dry powder (AID 651619); type: functional; conditions: Mycobacterium tuberculosis
# [16] = growth inhibition of replicating M. tuberculosis, dose response, counter-screen, dry powder, IC90 (AID 651617); type: functional; conditions: Mycobacterium tuberculosis
# [17] = inhibitors of non-replicating M. tuberculosis, dose response, luciferase, dry powder (AID 651620); type: functional; conditions: Mycobacterium tuberculosis
# [18] = IC50 of Artemis nuclease activity blockers – biochemical, fluorescence intensity, dose response (AID 720701); type: functional;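 also: Artemis endonuclease enzyme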
# [19] = Luminescence Cell-Based Dose Confirmation HTS to Identify Activators of 5'UTR Stem-Loop Driven Alpha-Synuclein mRNA Translation in H4 Neuroglioblastoma Cells. [Related pubchem assays: 1829 (Project Summary), 1814 (Primary HTS)]; type: functional
# [20] = Luminescence Cell-Based Dose Response HTS to Identify Activators of Luciferase Translation or Activity in H4 […] Cells. [Related pubchem assays: 1829 (Project Summary), 1814 (Primary HTS)]; type: functional
# Vero = experiment: viability of Vero cells under compound – cytotoxicity control for flavivirus capping enzyme inhibitors (AID 588742); type: functional; conditions: Chlorocebus sabaeus
# H4 = experiment: Luminescence Cell-Based Dose Response HTS to Identify Activators of 5'UTR Stem-Loop Driven Prion Protein mRNA Translation in H4 Neuroglioblastoma Cells. [Related pubchem assays: 1829 (Project Summary), 1814 (Primary HTS)]; type: functional; conditions: Homo sapiens
# [21] = target: T1, Oxysterols receptor LXR-beta (Homo sapiens, UniProt P55055); experiment: LXR agonists, Gal4 luciferase reporter, dose response, counter-screen for ssDAF-12 agonist project, cell-based, luminescence, HEK293, S. stercoralis campaign (AID 720737); type: functional; conditions: read-out: IC50 (the source's name)
# T1 sequence (P55055 whole entry): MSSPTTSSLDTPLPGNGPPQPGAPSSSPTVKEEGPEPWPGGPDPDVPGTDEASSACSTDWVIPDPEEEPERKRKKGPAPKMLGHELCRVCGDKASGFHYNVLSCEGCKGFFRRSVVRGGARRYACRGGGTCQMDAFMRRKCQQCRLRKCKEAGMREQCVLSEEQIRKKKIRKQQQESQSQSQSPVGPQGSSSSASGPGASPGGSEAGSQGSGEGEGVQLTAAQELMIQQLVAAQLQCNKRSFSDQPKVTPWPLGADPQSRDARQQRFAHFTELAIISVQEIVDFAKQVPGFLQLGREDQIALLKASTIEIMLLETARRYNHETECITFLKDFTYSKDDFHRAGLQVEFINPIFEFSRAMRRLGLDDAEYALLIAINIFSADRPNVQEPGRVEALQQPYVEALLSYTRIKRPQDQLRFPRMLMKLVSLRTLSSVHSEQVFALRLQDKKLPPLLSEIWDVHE
# Caspase-3 = target: T2, Caspase-3 (Homo sapiens, UniProt P42574); type: functional;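 also: Dose-response selectivity test against caspase-3 for candidate inhibitors of sentrin-specific proteases (SENPs)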
# T2 sequence (P42574 whole entry): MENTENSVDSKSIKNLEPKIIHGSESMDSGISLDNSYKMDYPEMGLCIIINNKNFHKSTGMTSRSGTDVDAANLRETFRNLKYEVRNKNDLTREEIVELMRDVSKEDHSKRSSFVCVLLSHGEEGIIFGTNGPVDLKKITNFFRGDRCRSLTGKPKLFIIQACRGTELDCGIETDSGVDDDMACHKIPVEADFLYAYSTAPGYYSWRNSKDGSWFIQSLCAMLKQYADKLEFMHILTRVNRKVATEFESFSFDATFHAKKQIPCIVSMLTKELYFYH
# [22] = target: T3, Sentrin-specific protease 8 (Homo sapiens, UniProt Q96LD8); type: functional;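 also: luminescence read-out of SENP8 inhibition, dose-response confirmation following an ultra-high-throughput screen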
# T3 sequence (Q96LD8 whole entry): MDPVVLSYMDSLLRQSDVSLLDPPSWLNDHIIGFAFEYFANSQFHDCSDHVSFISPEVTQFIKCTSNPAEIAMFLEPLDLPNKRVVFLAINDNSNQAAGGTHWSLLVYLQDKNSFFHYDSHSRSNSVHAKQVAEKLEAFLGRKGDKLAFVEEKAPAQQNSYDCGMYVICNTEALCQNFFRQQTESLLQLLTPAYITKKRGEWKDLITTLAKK
# [23] = target: T1, Oxysterols receptor LXR-beta; type: functional, cell-based
# [24] = target: T4, Sentrin-specific protease 7 (Homo sapiens, UniProt Q9BQF6); type: functional;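 also: Luminescence-based dose-response confirmation of ultra-high-throughput screening hits, measuring inhibition of SENP7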
# T4 sequence (Q9BQF6 whole entry): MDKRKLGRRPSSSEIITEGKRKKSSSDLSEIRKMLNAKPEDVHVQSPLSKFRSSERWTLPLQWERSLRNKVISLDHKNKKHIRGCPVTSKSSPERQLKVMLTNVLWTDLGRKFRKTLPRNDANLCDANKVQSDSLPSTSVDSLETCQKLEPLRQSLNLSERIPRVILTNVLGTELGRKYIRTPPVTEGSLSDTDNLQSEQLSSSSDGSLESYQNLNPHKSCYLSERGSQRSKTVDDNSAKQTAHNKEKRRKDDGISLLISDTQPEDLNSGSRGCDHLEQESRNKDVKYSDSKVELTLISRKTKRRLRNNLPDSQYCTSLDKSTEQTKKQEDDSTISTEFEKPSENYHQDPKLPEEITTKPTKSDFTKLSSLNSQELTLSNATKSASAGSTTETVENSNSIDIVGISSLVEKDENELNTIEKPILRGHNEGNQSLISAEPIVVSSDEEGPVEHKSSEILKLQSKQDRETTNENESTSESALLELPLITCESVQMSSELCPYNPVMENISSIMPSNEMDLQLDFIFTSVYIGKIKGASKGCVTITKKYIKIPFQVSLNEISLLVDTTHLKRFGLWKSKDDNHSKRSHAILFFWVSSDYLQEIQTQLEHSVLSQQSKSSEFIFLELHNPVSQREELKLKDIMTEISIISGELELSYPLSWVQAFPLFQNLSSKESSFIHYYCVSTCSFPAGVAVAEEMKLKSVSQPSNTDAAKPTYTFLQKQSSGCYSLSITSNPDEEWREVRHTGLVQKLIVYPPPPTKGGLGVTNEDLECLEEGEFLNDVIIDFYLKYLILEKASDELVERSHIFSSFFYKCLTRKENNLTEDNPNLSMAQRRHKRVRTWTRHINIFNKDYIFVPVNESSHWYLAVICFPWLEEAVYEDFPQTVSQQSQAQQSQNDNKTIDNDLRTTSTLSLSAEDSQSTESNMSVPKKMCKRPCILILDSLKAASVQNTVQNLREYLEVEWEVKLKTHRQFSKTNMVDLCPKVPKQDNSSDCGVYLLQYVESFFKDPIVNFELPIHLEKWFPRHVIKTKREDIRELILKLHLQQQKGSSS
# [25] = Luminescence-based cell-based high throughput dose response assay to identify activators of the DAF-12 from the parasite S. stercoralis (ssDAF-12).; type: functional
# [26] = target: T5, Sentrin-specific protease 6 (Homo sapiens, UniProt Q9GZR1); type: functional;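 also: Luminescence-based dose-response confirmatory assay of SENP6 inhibition, following up an ultra-high-throughput screen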
# T5 sequence (Q9GZR1 whole entry): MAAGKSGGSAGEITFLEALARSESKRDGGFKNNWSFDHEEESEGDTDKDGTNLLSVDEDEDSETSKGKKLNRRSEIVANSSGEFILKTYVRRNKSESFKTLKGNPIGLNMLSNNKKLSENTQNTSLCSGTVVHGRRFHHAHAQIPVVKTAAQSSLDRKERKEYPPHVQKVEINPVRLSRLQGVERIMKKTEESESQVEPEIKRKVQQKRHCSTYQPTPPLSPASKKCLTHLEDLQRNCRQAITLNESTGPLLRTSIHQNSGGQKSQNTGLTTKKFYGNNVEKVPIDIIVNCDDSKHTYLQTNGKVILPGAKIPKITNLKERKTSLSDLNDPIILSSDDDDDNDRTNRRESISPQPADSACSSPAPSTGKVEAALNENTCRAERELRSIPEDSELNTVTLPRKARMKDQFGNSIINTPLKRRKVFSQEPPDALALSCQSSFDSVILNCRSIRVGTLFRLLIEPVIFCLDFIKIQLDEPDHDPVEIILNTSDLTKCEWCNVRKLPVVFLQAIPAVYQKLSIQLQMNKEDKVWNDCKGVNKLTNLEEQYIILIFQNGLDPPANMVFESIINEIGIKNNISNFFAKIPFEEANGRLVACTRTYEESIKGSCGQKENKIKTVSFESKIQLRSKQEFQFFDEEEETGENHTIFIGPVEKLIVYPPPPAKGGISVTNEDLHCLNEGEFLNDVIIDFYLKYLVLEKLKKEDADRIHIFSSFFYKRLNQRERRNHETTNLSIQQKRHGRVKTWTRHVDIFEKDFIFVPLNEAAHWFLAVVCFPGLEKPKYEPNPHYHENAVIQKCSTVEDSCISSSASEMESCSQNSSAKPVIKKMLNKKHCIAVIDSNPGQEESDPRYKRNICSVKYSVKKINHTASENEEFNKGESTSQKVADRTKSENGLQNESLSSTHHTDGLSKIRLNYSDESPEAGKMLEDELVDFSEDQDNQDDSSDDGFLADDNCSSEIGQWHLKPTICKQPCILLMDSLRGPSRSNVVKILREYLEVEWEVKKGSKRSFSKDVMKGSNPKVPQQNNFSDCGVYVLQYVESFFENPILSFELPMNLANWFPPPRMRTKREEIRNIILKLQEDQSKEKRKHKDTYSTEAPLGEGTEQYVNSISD
# [27] = viability loss in CEM21 cells – cell-based, plate reader, dry powder, cytotoxicity control, dose response (AID 687026); type: functional
# [28] = inhibition of Env-driven cell fusion – HIV entry, plate reader, dry powder, dose response (AID 687023); type: functional, cell-based
# 1-phosphatidylinositol 4,5-bisphosphate phosphodiesterase beta-3, sequence (Q01970 whole entry): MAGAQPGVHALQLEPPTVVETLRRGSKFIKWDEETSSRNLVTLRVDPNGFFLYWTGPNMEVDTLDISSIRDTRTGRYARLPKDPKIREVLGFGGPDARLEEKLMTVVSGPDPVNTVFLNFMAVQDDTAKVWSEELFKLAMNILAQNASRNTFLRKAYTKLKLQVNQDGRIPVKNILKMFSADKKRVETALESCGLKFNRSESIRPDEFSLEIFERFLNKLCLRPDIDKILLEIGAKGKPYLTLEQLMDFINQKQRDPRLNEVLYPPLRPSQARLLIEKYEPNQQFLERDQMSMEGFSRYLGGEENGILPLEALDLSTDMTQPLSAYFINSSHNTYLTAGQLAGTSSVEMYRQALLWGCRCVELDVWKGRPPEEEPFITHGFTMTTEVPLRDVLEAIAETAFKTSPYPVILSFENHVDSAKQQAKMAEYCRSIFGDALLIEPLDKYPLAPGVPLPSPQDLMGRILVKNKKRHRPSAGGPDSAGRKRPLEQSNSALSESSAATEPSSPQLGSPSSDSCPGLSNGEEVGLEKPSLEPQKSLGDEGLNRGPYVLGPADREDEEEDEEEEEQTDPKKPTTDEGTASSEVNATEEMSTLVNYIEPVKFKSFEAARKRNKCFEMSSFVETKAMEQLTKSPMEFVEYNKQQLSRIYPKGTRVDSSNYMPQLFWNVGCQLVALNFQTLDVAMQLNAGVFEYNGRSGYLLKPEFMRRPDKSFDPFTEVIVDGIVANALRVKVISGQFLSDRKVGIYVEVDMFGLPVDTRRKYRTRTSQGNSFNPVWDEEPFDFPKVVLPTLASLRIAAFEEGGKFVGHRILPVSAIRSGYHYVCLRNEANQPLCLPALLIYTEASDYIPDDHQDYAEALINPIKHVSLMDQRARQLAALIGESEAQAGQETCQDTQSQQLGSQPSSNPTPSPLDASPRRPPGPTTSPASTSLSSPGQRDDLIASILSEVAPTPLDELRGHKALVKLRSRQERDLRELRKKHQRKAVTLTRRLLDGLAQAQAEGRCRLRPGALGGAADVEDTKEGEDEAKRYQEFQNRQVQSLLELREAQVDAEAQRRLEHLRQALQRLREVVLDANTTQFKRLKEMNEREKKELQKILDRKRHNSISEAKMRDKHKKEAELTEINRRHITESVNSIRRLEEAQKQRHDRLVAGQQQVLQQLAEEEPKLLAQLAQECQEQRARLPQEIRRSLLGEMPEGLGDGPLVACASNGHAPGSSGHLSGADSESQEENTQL
# Luciferin 4-monooxygenase, sequence (P08659 whole entry): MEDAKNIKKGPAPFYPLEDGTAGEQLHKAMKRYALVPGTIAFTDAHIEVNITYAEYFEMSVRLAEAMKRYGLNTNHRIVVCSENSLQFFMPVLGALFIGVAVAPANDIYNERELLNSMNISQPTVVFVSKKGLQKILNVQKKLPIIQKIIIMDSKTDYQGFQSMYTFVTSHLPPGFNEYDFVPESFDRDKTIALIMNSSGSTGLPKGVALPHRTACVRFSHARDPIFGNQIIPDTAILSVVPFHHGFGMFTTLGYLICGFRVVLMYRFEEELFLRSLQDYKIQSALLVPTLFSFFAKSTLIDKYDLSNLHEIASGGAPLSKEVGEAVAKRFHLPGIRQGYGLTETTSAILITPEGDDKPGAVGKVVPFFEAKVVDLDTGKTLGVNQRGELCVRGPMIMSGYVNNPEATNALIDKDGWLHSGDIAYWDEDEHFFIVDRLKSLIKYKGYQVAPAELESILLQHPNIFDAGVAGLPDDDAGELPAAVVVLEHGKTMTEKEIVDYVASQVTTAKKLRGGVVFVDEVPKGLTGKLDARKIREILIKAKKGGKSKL
# Kallikrein-7, sequence (P49862 whole entry): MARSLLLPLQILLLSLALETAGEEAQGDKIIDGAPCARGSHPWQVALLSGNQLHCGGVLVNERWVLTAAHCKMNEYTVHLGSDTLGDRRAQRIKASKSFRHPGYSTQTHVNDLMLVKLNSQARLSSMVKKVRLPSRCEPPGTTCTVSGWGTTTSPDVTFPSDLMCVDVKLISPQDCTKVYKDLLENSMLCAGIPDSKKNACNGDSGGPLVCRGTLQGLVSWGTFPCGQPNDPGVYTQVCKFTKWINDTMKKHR
# 1-phosphatidylinositol 4,5-bisphosphate phosphodiesterase gamma-1, sequence (P19174 whole entry): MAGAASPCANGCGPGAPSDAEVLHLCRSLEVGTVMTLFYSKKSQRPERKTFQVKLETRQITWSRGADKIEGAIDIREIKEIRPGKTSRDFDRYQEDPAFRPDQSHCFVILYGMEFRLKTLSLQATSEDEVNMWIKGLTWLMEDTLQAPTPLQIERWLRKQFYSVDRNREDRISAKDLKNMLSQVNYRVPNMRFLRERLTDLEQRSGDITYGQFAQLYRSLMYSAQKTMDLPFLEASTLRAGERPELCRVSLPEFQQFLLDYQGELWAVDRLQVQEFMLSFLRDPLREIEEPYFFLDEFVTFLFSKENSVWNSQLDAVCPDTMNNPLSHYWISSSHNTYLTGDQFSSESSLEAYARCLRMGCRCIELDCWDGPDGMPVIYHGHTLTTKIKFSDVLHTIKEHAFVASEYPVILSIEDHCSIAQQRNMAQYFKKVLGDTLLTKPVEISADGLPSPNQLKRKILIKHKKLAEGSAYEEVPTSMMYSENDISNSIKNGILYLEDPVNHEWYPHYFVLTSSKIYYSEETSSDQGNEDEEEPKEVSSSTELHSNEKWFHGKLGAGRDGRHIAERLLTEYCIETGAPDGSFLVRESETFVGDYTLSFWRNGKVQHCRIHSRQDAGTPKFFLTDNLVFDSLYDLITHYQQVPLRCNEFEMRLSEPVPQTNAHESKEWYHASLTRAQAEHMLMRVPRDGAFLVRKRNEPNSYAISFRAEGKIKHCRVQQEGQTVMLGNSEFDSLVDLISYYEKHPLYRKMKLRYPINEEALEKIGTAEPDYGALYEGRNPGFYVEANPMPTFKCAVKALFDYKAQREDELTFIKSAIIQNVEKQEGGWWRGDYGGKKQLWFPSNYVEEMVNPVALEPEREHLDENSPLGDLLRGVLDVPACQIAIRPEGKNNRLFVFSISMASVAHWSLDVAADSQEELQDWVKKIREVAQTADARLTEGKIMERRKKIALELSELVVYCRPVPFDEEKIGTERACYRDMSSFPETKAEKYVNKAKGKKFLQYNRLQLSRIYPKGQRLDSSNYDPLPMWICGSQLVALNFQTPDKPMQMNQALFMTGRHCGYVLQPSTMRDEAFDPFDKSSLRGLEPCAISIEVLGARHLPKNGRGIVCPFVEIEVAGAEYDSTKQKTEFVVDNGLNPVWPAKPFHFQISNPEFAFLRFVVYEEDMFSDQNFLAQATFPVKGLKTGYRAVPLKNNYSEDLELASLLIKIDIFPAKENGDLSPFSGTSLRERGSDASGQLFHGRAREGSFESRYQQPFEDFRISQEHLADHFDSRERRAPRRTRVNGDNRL
compound,measurement,setting,value
CC1(C)CC(=O)C2=C(C1)c1c(ccc3ccccc13)NC2c1ccc(OCC(=O)O)cc1 (configuration not stated),EC50,Kallikrein-7,> 69.5 µM (inactive)
CCc1ccccc1NCc1ccc(N2CCCC2)cc1,AC50,[1],149 µM (active)
O=C1C=C(Nc2ccc([N+](=O)[O-])c(C(F)(F)F)c2)C(=O)c2ccccc21,AC50,[2],8.56 µM (active)
same,AC50,[3],5.19 µM (active)
same,AC50,[4],> 70 µM (inactive)
same,AC50,[5],> 70 µM (inactive)
same,AC50,[6],15.3 µM (active)
same,AC50,[7],27.7 µM (active)
same,AC50,[8],36.1 µM (active)
same,AC50,[9],1.06 µM (active)
same,AC50,[10],27.7 µM (active)
Nc1ncnc2c1ncn2[C@@H]1O[C@H](COP(=O)(O)O)[C@@H](O)[C@H]1O,EC50,[11],1.48 µM (active)
same,IC50,[12],13.2 µM (inactive)
same,EC50,[13],1.13 µM (active)
same,IC50,[14],> 122 µM (inactive)
c1ccc(-c2nnc(SCc3ccncc3)o2)cc1,IC90,[15],31 µM (active)
same,IC90,[16],250 µM (active)
same,IC90,[17],31 µM (active)
O=C(Nc1ccc2oc(-c3cccc4ccccc34)nc2c1)c1nc[nH]n1,IC50,[18],7.47 µM (active)
same,EC50,[19],0.627 µM (active)
same,EC50,[20],15.8 µM (active)
same,CC50,Vero,> 40 µM (active)
same,EC50,H4,5.42 µM (active)
Cc1csc(NC(=O)c2ccc3ccccc3n2)n1,EC50,[21],> 67.6 µM (inactive)
same,IC50,Caspase-3,6.96 µM (active)
same,IC50,[22],16.2 µM (active)
same,EC50,[23],> 67.6 µM (inactive)
same,IC50,[24],5.25 µM (active)
same,IC50,[25],> 67.6 µM (inactive)
same,IC50,[26],11 µM (active)
Cc1noc(C)c1S(=O)(=O)Nc1cccc2c1O[C@@H](CN(C)Cc1ccc(C(F)(F)F)cc1)[C@@H](C)CN([C@H](C)CO)C2=O,AC50,[27],> 70 µM (inactive)
same,AC50,[28],18.6 µM (active)
